Where two headings read alike, the source gives them in different places.
Target: T1, PD-1/PD-L1 (Homo sapiens, UniProt Q9NZQ7)
T1 construct: made in house; host or cells: HEK293T
Assay: PD-1/PD-L1 Homogenous Time-Resolved Fluorescence (HTRF) binding assay
Details: PD-L1-His 10 nM, PD-1-Ig 20 nM, read-out: Range or IC50
Description: The ability of the compounds of formula (I) to bind to PD-L1 was investigated using a PD-1/PD-L1 Homogenous Time-Resolved Fluorescence (HTRF) binding assay.
Homogenous Time-Resolved Fluorescence (HTRF) Binding Assay.
All binding studies were performed in an HTRF assay buffer consisting of dPBS supplemented with 0.1% […] bovine serum albumin and 0.05% (v/v) Tween-20. […] HTRF detection was achieved using europium crypate-labeled anti-Ig (1 nM final) and allophycocyanin (APC) labeled anti-His (20 nM final). Antibodies were diluted in HTRF detection buffer and 5 μl was dispensed on top of the binding reaction. […] Additional binding assays were established between the human proteins PD-1-Ig/PD-L2-His (20 & 5 nM, respectively) and CD80-His/PD-L1-Ig (100 & 10 nM, respectively). […]

T1 sequence (Q9NZQ7 with tags, fused parts or gaps): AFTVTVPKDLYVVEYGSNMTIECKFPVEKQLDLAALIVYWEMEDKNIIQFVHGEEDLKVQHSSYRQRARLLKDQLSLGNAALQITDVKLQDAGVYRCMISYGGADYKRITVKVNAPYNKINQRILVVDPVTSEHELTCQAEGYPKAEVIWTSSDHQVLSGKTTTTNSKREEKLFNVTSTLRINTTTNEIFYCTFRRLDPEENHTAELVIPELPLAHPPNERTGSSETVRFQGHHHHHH

SMILES | IC50 (value given as range class) [nM] | IC50 (numeric IC50) [nM]
Cc1c(COc2cc(OCc3cncc(C#N)c3)c(CN[C@@H](Cc3ccccc3)C(=O)O)cc2Cl)cccc1-c1cccc(OCCCN2CC[C@@H](O)C2)c1C [Example 4152, (5-chloro-2-((5-cyanopyridin-3-yl)methoxy)-4-((3′-(3-((R)-3-hydroxypyrrolidin-1-yl)propoxy)-2,2′-dimethyl-[1,1′-biphenyl]-3-yl)methoxy)benzyl)-L-phenylalanine] | 0.21 to 10 | 
Cc1c(COc2cc(OCc3cncc(C(N)=O)c3)c(CN[C@H](CO)C(=O)O)cc2Cl)cccc1-c1cccc(OCCCN2CCC(CO)(C(=O)O)C2)c1C (stereo partly drawn) [Example 1053, 1-(3-((3′-((5-((5-carbamoylpyridin-3-yl)methoxy)-4-((((R)-1-carboxy-2-hydroxyethyl)amino)methyl)-2-chlorophenoxy)methyl)-2,2′-dimethyl-[1,1′-biphenyl]-3-yl)oxy)propyl)-3-(hydroxymethyl)pyrrolidine-3-carboxylic Acid] | 0.21 to 10 | 
COC(=O)[C@H]1CC[C@H](NCCCOc2cccc(-c3cccc(COc4cc(OCc5cncc(C#N)c5)c(CN5CCCC[C@H]5C(=O)O)cc4Cl)c3C)c2C)CC1 [Example 2229, (2S)-1-(5-chloro-2-((5-cyanopyridin-3-yl)methoxy)-4-((3′-(3-((1r,4r)-4-(methoxycarbonyl)cyclohexylamino)propoxy)-2,2′-dimethylbiphenyl-3-yl)methoxy)benzyl)piperidine-2-carboxylic Acid] | 0.21 to 10 | 
CNC(=O)c1cccc(-c2cccc(COc3cc(OCc4cncc(C#N)c4)c(CNC(CO)CO)cc3Cl)c2C)c1C [Example 4015, 3′-((2-chloro-5-((5-cyanopyridin-3-yl)methoxy)-4-(((1,3-dihydroxypropan-2-yl)amino)methyl)phenoxy)methyl)-N,2,2′-trimethyl-[1,1′-biphenyl]-3-carboxamide] | 0.21 to 10 | 
Cc1c(COc2cc(OCc3cncc(C#N)c3)c(CN[C@@](C)(CO)C(=O)O)cc2Cl)cccc1-c1cccc(O[C@@H](C)CCN2CC[C@@H](O)C2)c1Cl [Example 1521, (S)-2-((5-chloro-4-((2′-chloro-3′-(((S)-4-((R)-3-hydroxypyrrolidin-1-yl)butan-2-yl)oxy)-2-methyl-[1,1′-biphenyl]-3-yl)methoxy)-2-((5-cyanopyridin-3-yl)methoxy)benzyl)amino)-3-hydroxy-2-methylpropanoic acid] | 0.21 to 10 | 
Cc1c(COc2cc(OCc3cncc(C#N)c3)c(CN[C@H](CO)C(=O)O)cc2Cl)cccc1-c1cccc(OCCCN2CC[C@@H](O)C2)c1Cl [Example 1512, (R)-2-((5-chloro-4-((2′-chloro-3′-(3-((R)-3-hydroxypyrrolidin-1-yl)propoxy)-2-methyl-[1,1′-biphenyl]-3-yl)methoxy)-2-((5-cyanopyridin-3-yl)methoxy)benzyl)amino)-3-hydroxypropanoic acid] | 0.21 to 10 | 
Cc1c(COc2cc(OCc3cncc(C#N)c3)c(CN[C@@H](CO)C(=O)O)cc2Cl)cccc1-c1cccc(OCCCN2CCC(O)C2)c1C (stereo in doubt) [Example 3004, (S)-2-((5-chloro-2-((5-cyanopyridin-3-yl)methoxy)-4-((3′-(3-((R)-3-hydroxypyrrolidin-1-yl)propoxy)-2,2′-dimethyl-[1,1′-biphenyl]-3-yl)methoxy)benzyl)amino)-3-hydroxypropanoic Acid] | 0.21 to 10 | 
Cc1c(COc2cc(OCc3cncc(C#N)c3)c(CNC(C)(C)C)cc2Cl)cccc1-c1cccc(OCCCN2CC[C@@H](O)C2)c1C [Example 2326, (R)-5-((2-((tert-butylamino)methyl)-4-chloro-5-((3′-(3-(3-hydroxypyrrolidin-1-yl)propoxy)-2,2′-dimethyl-[1,1′-biphenyl]-3-yl)methoxy)phenoxy)methyl)nicotinonitrile] | 0.21 to 10 | 
Cc1c(COc2cc(OCc3cncc(C#N)c3)c(CN3CCCC[C@H]3C(=O)O)cc2Cl)cccc1-c1cccc(OCCCNC[C@H](O)CO)c1Cl [Example 2007, (S)-1-(5-chloro-4-((2′-chloro-3′-(3-(((S)-2,3-dihydroxypropyl)amino)propoxy)-2-methyl-[1,1′-biphenyl]-3-yl)methoxy)-2-((5-cyanopyridin-3-yl)methoxy)benzyl)piperidine-2-carboxylic Acid] |  | 0.88

Next, values leading:

IC50 (value given as range class) [nM] | IC50 (numeric IC50) [nM] | SMILES
0.21 to 10 |  | Cc1c(COc2cc(OCc3cncc(C#N)c3)c(CN[C@@](C)(CO)C(=O)O)cc2Cl)cccc1-c1cccc(OCCCN2CCC(F)(F)C2)c1C [Example 4119, (S)-2-((5-chloro-2-((5-cyanopyridin-3-yl)methoxy)-4-((3′-(3-(3,3-difluoropyrrolidin-1-yl)propoxy)-2,2′-dimethyl-[1,1′-biphenyl]-3-yl)methoxy)benzyl)amino)-3-hydroxy-2-methylpropanoic Acid]
0.21 to 10 |  | Cc1c(COc2cc(OCc3cncc(C#N)c3)c(CNCC(=O)O)cc2Cl)cccc1-c1cccc(OCCCN2CC[C@@H](O)C2)c1C [Example 4147, (R)-(5-chloro-2-((5-cyanopyridin-3-yl)methoxy)-4-((3′-(3-(3-hydroxypyrrolidin-1-yl)propoxy)-2,2′-dimethyl-[1,1′-biphenyl]-3-yl)methoxy)benzyl)glycine]
0.21 to 10 |  | Cc1c(COc2cc(OCc3cncc(C#N)c3)c(CN[C@@](C)(CO)C(=O)O)c(C)c2Cl)cccc1-c1cccc(OCCCN2CC[C@@H](O)C2)c1C [Example 4106, (S)-2-((3-chloro-6-((5-cyanopyridin-3-yl)methoxy)-4-((3′-(3-((R)-3-hydroxypyrrolidin-1-yl)propoxy)-2,2′-dimethyl-[1,1′-biphenyl]-3-yl)methoxy)-2-methylbenzyl)amino)-3-hydroxy-2-methylpropanoic Acid]
0.21 to 10 |  | CC(=O)NC1CCN(CCCOc2cccc(-c3cccc(COc4cc(OCc5cncc(C#N)c5)c(CN5CCCC[C@H]5C(=O)O)cc4Cl)c3C)c2C)CC1 [Example 1105, (S)-1-(4-((3′-(3-(4-acetamidopiperidin-1-yl)propoxy)-2,2′-dimethyl-[1,1′-biphenyl]-3-yl)methoxy)-5-chloro-2-((5-cyanopyridin-3-yl)methoxy)benzyl)piperidine-2-carboxylic Acid]
0.21 to 10 |  | Cc1c(COc2cc(OCc3cncc(C#N)c3)c(CNC(CO)CO)cc2Cl)cccc1-c1cccc(OCCCN2CC[C@@H](O)C2)c1Cl [Example 2035, (R)-5-((4-chloro-5-((2′-chloro-3′-(3-(3-hydroxypyrrolidin-1-yl)propoxy)-2-methyl-[1,1′-biphenyl]-3-yl)methoxy)-2-(((1,3-dihydroxypropan-2-yl)amino)methyl)phenoxy)methyl)nicotinonitrile]
0.21 to 10 |  | CCOC(=O)C1(CO)CCN(CCCOc2cccc(-c3cccc(COc4cc(OCc5cncc(C#N)c5)c(CNC(C)(CO)CO)cc4Cl)c3C)c2Cl)C1 (stereo not drawn) [Example 1117, ethyl 1-(3-((2-chloro-3′-((2-chloro-5-((5-cyanopyridin-3-yl)methoxy)-4-(((1,3-dihydroxy-2-methylpropan-2-yl)amino)methyl)phenoxy)methyl)-2′-methyl-[1,1′-biphenyl]-3-yl)oxy)propyl)-3-(hydroxymethyl)pyrrolidine-3-carboxylate]
100 to 2000 |  | CCN(CC)C(=O)c1cccc(-c2cccc(COc3cc(OCc4cncc(C#N)c4)c(CN4CCC[C@H]4C(=O)O)cc3Cl)c2C)c1C [Example 4041, (5-chloro-2-((5-cyanopyridin-3-yl)methoxy)-4-((3′-(diethylcarbamoyl)-2,2′-dimethyl-[1,1′-biphenyl]-3-yl)methoxy)benzyl)-L-proline]
0.21 to 10 |  | COC(=O)C1(C)CCCCN1Cc1cc(Cl)c(OCc2cccc(-c3cccc(OCCCN4CC[C@@H](O)C4)c3Cl)c2C)cc1OCc1cncc(C#N)c1 (stereo partly drawn) [Example 3070, methyl 1-(5-chloro-4-((2′-chloro-3′-(3-((R)-3-hydroxypyrrolidin-1-yl)propoxy)-2-methyl-[1,1′-biphenyl]-3-yl)methoxy)-2-((5-cyanopyridin-3-yl)methoxy)benzyl)-2-methylpiperidine-2-carboxylate]
10 to 100 |  | Cc1c(COc2cc(OCc3cncc(C#N)c3)c(CO)cc2Cl)cccc1-c1cccc(OCCCN2CC[C@@H](O)C2)c1C(F)F [Example 1515, (R)-5-((4-chloro-5-((2′-(difluoromethyl)-3′-(3-(3-hydroxypyrrolidin-1-yl)propoxy)-2-methyl-[1,1′-biphenyl]-3-yl)methoxy)-2-(hydroxymethyl)phenoxy)methyl)nicotinonitrile]
0.21 to 10 |  | Cc1c(COc2cc(OCc3cncc(C#N)c3)c(CN[C@](C)(CO)C(=O)O)cc2Cl)cccc1-c1cccc(OCCCNC[C@H](O)CO)c1Cl [Example 2048, (R)-2-((5-chloro-4-((2′-chloro-3′-(3-(((S)-2,3-dihydroxypropyl)amino)propoxy)-2-methyl-[1,1′-biphenyl]-3-yl)methoxy)-2-((5-cyanopyridin-3-yl)methoxy)benzyl)amino)-3-hydroxy-2-methylpropanoic Acid]
0.21 to 10 |  | Cc1c(COc2cc(OCc3cncc(C#N)c3)c(CNC(C)(CO)CO)cc2Cl)cccc1-c1cccc(OCCc2ccccn2)c1Cl [Example 2081, 5-((4-chloro-5-((2′-chloro-2-methyl-3′-(2-(pyridin-2-yl)ethoxy)-[1,1′-biphenyl]-3-yl)methoxy)-2-(((1,3-dihydroxy-2-methylpropan-2-yl)amino)methyl)phenoxy)methyl)nicotinonitrile]
0.21 to 10 |  | COc1cc(OCc2cccc(-c3cccc(OCCCN4CC[C@@H](O)C4)c3C)c2C)c(Cl)cc1CN[C@@H](CO)C(=O)O [Example 3035, (2S)-2-((5-chloro-4-((3′-(3-((R)-3-hydroxypyrrolidin-1-yl)propoxy)-2,2′-dimethyl-[1,1′-biphenyl]-3-yl)methoxy)-2-methoxybenzyl)amino)-3-hydroxypropanoic Acid]
